Measurements as given in US11059878B2, “Therapeutic targeting of SET1B/compass pathway for treating cancers” (Northwestern University, priority 2016, dated 2021).

Experiments:
[1] = tested on: MDA-MB-231, MDA-MB-468, and LM2 cells; assay: Colony formation of triple-negative breast cancer lines, crystal violet staining; assay type: cell-based, human
Protocol: FIG. 6. Targeting AdipoR1 signaling in human TNBC. A) MDA-MB-231, MDA-MB-468 and MCF7 cells were infected with lentiviruses inducibly expressing either GFP or GFP-ADIPOR1. After neomycin selection, the stably transfected cells were treated with DMSO or doxycycline (DOX). The induced GFP or GFP-AdipoR1 was determined by western blot in three cell lines, n=3. B) The proliferation ability of GFP or GFP-ADIPOR1 inducible cell lines were determined by cell counting, n=3, Student's t test was used for statistical analysis. **P<0.01; *P<0.05. Error bars represent sd. C) The GFP or GFP-ADIPOR1 inducible cell lines were seeded in 6-well plates at the concentration of 4×10^4 living cells per well. The cells were then treated with DMSO or doxycycline. The cell survival was shown six days after doxycycline treatment by crystal violet staining. D) Quantification of crystal violet staining was determined as described in materials section. n=4, Student's t test was used for statistical analysis. **P<0.01; *P<0.05. Error bars represent sd. […] F) Quantification of crystal violet staining was determined as described in materials section. n=4, Student's t test was used for statistical analysis. **P<0.01; *P<0.05. […] They were treated with either PBS or AdipoRon (50 mg/kg) for 10 times, and the tumor size (G) and animal survival (H) was monitored. Tumor growth was measured two weeks after inoculation (n=7). […]

SET1B = SET1B protein level by western blot after AdipoRON treatment; assay type: cell-based, human; conditions: MDA-MB-231 cells, various concentrations for 24 hours
Protocol: FIG. 13. Depletion of AdipoR1 by CRISPR-CAS9 partially rescued cell death induced by SET1B depletion. A) Design of CRIPSR-Cas9 targeting ADIPOR1 gene locus. B) PCR was performed for genotyping of AdipoR1 wildtype and deleted cells. C) Total RNA was extracted from AdipoR1-WT and AdipoR1-KO cells and subjected to RNA-seq, three replicates. Representative tracks of AdipoR1 gene are shown. D) SET1B was further knocked down in ADIPOR1-WT and ADIPOR1-KO cells, respectively. After puromycin selection for 48 hours, 1×10^5 cells were seeded in 6-well plate, the cell viability of SET1B knocked down cells was determined by cell counting. E) The cells from panel C were seeded in 6-well plate (1×10^4) and grown for one week before crystal violet staining. F) Quantification of crystal violet staining was determined as described in materials section. n=4, Student's t test was used for statistical analysis. **P<0.01; *P<0.05. Error bars represent sd. […] H) Cell morphology of GFP or GFP-AdipoR1 inducible cell lines after DMSO or Dox treatment, n=3. I) MCF7 cells were seeded in 6-well plates at the concentration of 500 cells per well. The cells were treated with either DMSO or AdipoRON (10 μM) for three weeks, and the colonies were stained with crystal violet. J) MDA-MB-231 cells were treated with various concentrations of AdipoRON for 24 hours. The protein level of SET1B was determined by western blot. […]

LM2 cells = assay: LM2 cell fat pad xenograft in nude mice, treatment assay; assay type: in vivo
Protocol: FIG. 6. Targeting AdipoR1 signaling in human TNBC. A) MDA-MB-231, MDA-MB-468 and MCF7 cells were infected with lentiviruses inducibly expressing either GFP or GFP-ADIPOR1. After neomycin selection, the stably transfected cells were treated with DMSO or doxycycline (DOX). The induced GFP or GFP-AdipoR1 was determined by western blot in three cell lines, n=3. B) The proliferation ability of GFP or GFP-ADIPOR1 inducible cell lines were determined by cell counting, n=3, Student's t test was used for statistical analysis. **P<0.01; *P<0.05. Error bars represent sd. C) The GFP or GFP-ADIPOR1 inducible cell lines were seeded in 6-well plates at the concentration of 4×10^4 living cells per well. The cells were then treated with DMSO or doxycycline. The cell survival was shown six days after doxycycline treatment by crystal violet staining. D) Quantification of crystal violet staining was determined as described in materials section. n=4, Student's t test was used for statistical analysis. **P<0.01; *P<0.05. Error bars represent sd. E) MDA-MB-231, MDA-MB-468, and LM2 cells were seeded in 6-well plates at the concentration of 200 cells per well. […] F) Quantification of crystal violet staining was determined as described in materials section. n=4, Student's t test was used for statistical analysis. **P<0.01; *P<0.05. […] They were treated with either PBS or AdipoRon (50 mg/kg) for 10 times, and the tumor size (G) and animal survival (H) was monitored. Tumor growth was measured two weeks after inoculation (n=7). […]
FIG. 14. […] They were treated with either PBS or AdipoRon (50 mg/kg and 100 mg/kg, respectively) for 10 times, and the tumor size was monitored. Tumor growth was measured two weeks after inoculation (n=8). […]
Animal experiments. […] Tumor growth was monitored every other day two weeks after inoculation. […] They were treated with either PBS or AdipoRon (50 mg/kg) for 10 times, and the tumor size (G) and animal survival (H) was monitored. Tumor growth was measured two weeks after inoculation.

[2] = mice treated with 50 mg/kg AdipoRon; cited from earlier work
[3] = cited from earlier work

In the case of O=C(COc1ccc(C(=O)c2ccccc2)cc1)NC1CCN(Cc2ccccc2)CC1 [AdipoRon], the “anti-tumor effect in vitro” value ([1]; 10 μM) is reported as “dramatic anti-tumor effect”, the colony formation ability ([1]; AdipoRON 10 μM for three weeks, multiple triple-negative breast cancer lines, 200 cells per well) is reported as “significantly inhibited” and the SET1B protein level (SET1B) is reported as “does not affect”. The “drug effect (tumor size) by intraperitoneal injection” value (LM2 cells; intraperitoneal injection, 50 mg/kg and 100 mg/kg, 10 times) was “consistent result”, the “tumor size / tumor growth” value (LM2 cells; oral 50 mg/kg, started 12 days after transplantation) was “significantly reduced” and the “animal survival / lifespan” value (LM2 cells; oral 50 mg/kg, started 12 days after transplantation, 50 mg/kg) was “significantly increased”. The plasma concentration [2] was 11.6 µM and the toxicity in vivo [3] was “low toxicity”.
